Results reported in US20260217735A1, “HETEROCYCLES AND USES THEREOF” (Kumquat Biosciences Inc., priority 2023, published 2026).

Key:
KRAS G12S = target: T1, KRAS G12S (Homo sapiens, UniProt P01116, G12S); test: HTRF assay, KRAS G12S interaction with SOS1; type: biochemical; conditions: bins <500 nM / 500 nM to 1000 nM, read-out: Inhibition of KRAS G12S (IC50)
T1 construct: made in house; host or cells: E. coli, e.g. BL21 (DE3)
Description: (§1) This assay can be also used to assess a selective inhibition or reduction of signaling output of a mutant Ras protein relative to a wildtype, or relative to a different mutant Ras protein. For example, the equilibrium interaction of wildtype KRAS or K-Ras mutant (e.g., wildtype or a mutant thereof) with SOS1 (e.g., hSOS1) can be assessed as a proxy or an indication for the ability of a subject compound to bind and inhibit Ras protein. The HTRF assay detects from (i) a fluorescence resonance energy transfer (FRET) donor (e.g., antiGST-Europium) that is bound to GST-tagged K-Ras mutant to (ii) a FRET acceptor (e.g., anti-6His-XL665) bound to a His-tagged hSOSL1.
(§2) The assay buffer can contain ~5 mM HEPES pH 7.4, ~150 mM NaCl, ~1 mM DTT, 0.05% BSA and 0.0025% (v/v) Igepal. A Ras working solution is prepared in an assay buffer containing typically a suitable amount of the protein construct (e.g., GST-tagged K-Ras mutant) and the FRET donor (e.g., antiGST-Eu(K) from Cisbio, France). A SOS1 working solution is prepared in an assay buffer containing suitable amount of the protein construct (e.g., His-hSOS1) and the FRET acceptor (e.g., anti-6His-XL665 from Cisbio, France). A suitable amount of the protein construct will depend on the range of activity or range of IC50 values being detected or under investigation. For detecting an IC50 within a range of 500 nM, the protein constructs of the same range of molarity can be utilized.
(§3) A fixed volume of DMSO with or without test compound is transferred into a 384-well plate. Ras working solution is added to all wells of the test plate. SOS1 working solution is added to all wells except for those that are subsequently filled with inhibitor control solution. Upon incubation for about 10 minutes or longer, the fluorescence is measured with a M1000Pro plate reader (Tecan) using HTRF detection (excitation 337 nm, emission 1: 620 nm, emission 2: 665 nm). Compounds are tested in duplicate at different concentrations (for example, 10 μM, 2.5 μM, 0.63 μM, 0.16 μM, 0.04 μM, 0.01 μM test compound). The ratiometric data (i.e., emission 2 divided by emission 1) is used to calculate IC50 values against Ras using GraphPad Prism (GraphPad software). Signaling output measured in terms of IC50 values can be obtained and a ratio of IC50 against one mutant relative to another mutant can be calculated. For instance, a selective reduction of K-Ras G12S signaling output can be evidenced by a ratio greater than one. In particular, a selective reduction of K-Ras G12S signaling relative to K-Ras WT signaling is evidenced if the ratio of IC50 (against K-Ras WT) to IC50 (against K-Ras G12S) is greater than 1.

KRAS WT = target: T2, KRAS WT (Homo sapiens, UniProt P01116); test: HTRF assay, wildtype KRAS interaction with SOS1; type: biochemical; conditions: bins <500 nM / 500 nM to 1000 nM, read-out: Inhibition of KRAS WT (IC50)
T2 construct: made in house; host or cells: E. coli, e.g. BL21 (DE3)
T2 sequence (P01116 1-188 isoform P01116-2): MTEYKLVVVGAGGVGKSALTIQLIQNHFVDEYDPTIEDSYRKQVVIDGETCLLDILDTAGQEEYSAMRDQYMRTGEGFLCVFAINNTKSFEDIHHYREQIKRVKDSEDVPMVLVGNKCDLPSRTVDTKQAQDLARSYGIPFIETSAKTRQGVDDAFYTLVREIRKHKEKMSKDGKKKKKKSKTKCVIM
Description: as §1, §2, §3

KRAS G12D = target: T3, KRAS G12D (Homo sapiens, UniProt P01116, G12D); test: HTRF assay, KRAS G12D interaction with SOS1; type: biochemical; conditions: bins <500 nM / 500 nM to 1000 nM, read-out: Inhibition of KRAS G12D (IC50)
T3 construct: made in house; host or cells: E. coli, e.g. BL21 (DE3)
T3 sequence (P01116 1-188 isoform P01116-2 G12D): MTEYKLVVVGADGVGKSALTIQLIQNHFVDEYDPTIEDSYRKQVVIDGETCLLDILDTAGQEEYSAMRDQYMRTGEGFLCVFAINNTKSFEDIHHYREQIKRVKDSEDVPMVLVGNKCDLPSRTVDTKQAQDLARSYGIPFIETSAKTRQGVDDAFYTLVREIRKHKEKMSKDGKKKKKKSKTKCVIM
Description: as §1, §2, §3

MiaPaca2 cells = test: Ras cellular assay, growth of cells with K-Ras G12C mutation; type: cell-based; conditions: Homo sapiens, MIA PaCa-2; cell proliferation assay; bins ≤500 nM / >500 nM; read-out: Inhibition of MiaPaca2 Cells (IC50)
Procedure: For example, this assay can be also used to assess selective growth inhibition of a mutant Ras protein relative to a wildtype or different mutant Ras protein.
MIA PaCa-2 (ATCC CRL-1420) and NCI-H1792 (ATCC CRL-5895) cell lines comprise a G12C mutation and can be used to assess Ras cellular signaling in vitro, e.g., in response to an inhibitor compound of the present disclosure. […] MIA PaCa-2 culture medium is prepared with DMEM/Ham's F12 (e.g., with stable glutamine, 10% FCS, and 2.5% horse serum. NCI-H1792 culture medium is prepared with RPMI 1640 (e.g., with stable glutamine) and 10% FCS.
On a first day (e.g., Day 1), Softagar (Select Agar, Invitrogen, 3% in ddH2O autoclaved) is boiled and tempered at 48° C. Appropriate culture medium (i.e., medium) is tempered to 37° C. Agar (3%) is diluted 1:5 in medium (=0.6%) and plated into 96 well plates (Corning, #3904), then incubated at room temperature for agar solidification. A 3% agar is diluted to 0.25% in medium (1:12 dilution) and tempered at 42° C. Cells are trypsinized, counted, and tempered at 37° C. The cells (e.g., MIA PaCa-2 at about 125-150 cells, NCI-H1792 at about 1000 cells) are resuspended in […] 0.25% Agar and plated, followed by incubation at room temperature for agar solidification. The wells are overlaid with […] of the medium. Sister wells in a separate plate are plated for time zero determination. All plates are incubated overnight at 37° C. and 5% CO2.
On a second day (e.g., Day 2), time zero values are measured. A […] volume of Cell Titer 96 Aqueous Solution (Promega) is added to each well and incubated in the dark at 37° C. and 5% CO2. Absorption can be measured at 490 nm and reference wavelength 660 nm. DMSO-prediluted test compounds are added to wells of interest, e.g., with HP Dispenser, to one or more desired concentrations (e.g., a final DMSO concentration of 0.3%).
On a tenth day (e.g., Day 10), absorption by wells treated with the test compounds and control wells are measured with, for example, Cell Titer 96 AQueous and analyzed in comparison to the time zero measurements. The IC50 values are determined using the four parameter fit. The resulting IC50 value is a measurement of the ability of the test compound to reduce cell growth of Ras-driven cells (e.g., tumor cell lines) in vitro and/or in vivo.

KRAS G12V = target: T4, KRAS G12V (Homo sapiens, UniProt P01116, G12V); test: HTRF assay, KRAS G12V interaction with SOS1; type: biochemical; conditions: bins <500 nM / 500 nM to 1000 nM, read-out: Inhibition of KRAS G12V (IC50)
T4 construct: made in house; host or cells: E. coli, e.g. BL21 (DE3)
T4 sequence (P01116 1-188 isoform P01116-2 G12V): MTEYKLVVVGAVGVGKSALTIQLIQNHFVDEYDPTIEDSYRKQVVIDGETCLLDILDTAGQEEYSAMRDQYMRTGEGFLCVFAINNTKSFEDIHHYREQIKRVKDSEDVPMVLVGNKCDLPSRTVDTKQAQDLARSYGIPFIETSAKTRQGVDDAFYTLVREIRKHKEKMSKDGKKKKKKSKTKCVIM
Description: as §1, §2, §3

T1 sequence (P01116 1-188 isoform P01116-2 G12S): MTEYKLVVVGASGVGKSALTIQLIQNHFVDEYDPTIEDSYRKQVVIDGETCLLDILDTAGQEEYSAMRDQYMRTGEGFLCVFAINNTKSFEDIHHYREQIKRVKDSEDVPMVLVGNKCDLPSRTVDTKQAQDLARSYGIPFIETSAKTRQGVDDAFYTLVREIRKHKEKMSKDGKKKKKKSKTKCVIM

## Cc1cn(C(=O)N2CC[C@@]23CCN(c2nc(OC[C@@]45CCCN4C[C@H](F)C5)nc4c(F)c(-c5ccc(F)c6sc(N)c(C#N)c56)c(Cl)cc24)C3)cn1 (atropisomer, axis not shown; (aS)) [Compound 107, (R)-2-amino-4-(6-chloro-8-fluoro-2-(((2R,7aS)-2-fluorotetrahydro-1H-pyrrolizin-7a(5H)-yl)methoxy)-4-((R)-1-(4-methyl-1H-imidazole-1-carbonyl)-1,6-diazaspiro[3.4]octan-6-yl)quinazolin-7-yl)-7-fluorobenzo[b]thiophene-3-carbonitrile]
KRAS G12S
  IC50: < 0.5 µM
KRAS WT
  IC50: < 0.5 µM
KRAS G12D
  IC50: < 0.5 µM
MiaPaca2 cells
  IC50: ≤ 0.5 µM
KRAS G12V
  IC50: < 0.5 µM

## CCN(c1nc(OC[C@@]23CCCN2C[C@H](F)C3)nc2c(F)c(-c3ccc(F)c4sc(N)c(C#N)c34)c(C(F)(F)F)cc12)[C@@H]1CCN(C(=O)n2cc(C)nc2C)[C@@H]1C (atropisomer, axis not shown; (aS)) [Compound 114, (S)-2-amino-4-(4-(((2R,3R)-1-(2,4-dimethyl-1H-imidazole-1-carbonyl)-2-methylpyrrolidin-3-yl)(ethyl)amino)-8-fluoro-2-(((2R,7aS)-2-fluorotetrahydro-1H-pyrrolizin-7a(5H)-yl)methoxy)-6-(trifluoromethyl)quinazolin-7-yl)-7-fluorobenzo[b]thiophene-3-carbonitrile]
KRAS G12S
  IC50: < 0.5 µM
KRAS WT
  IC50: < 0.5 µM
KRAS G12D
  IC50: < 0.5 µM
MiaPaca2 cells
  IC50: ≤ 0.5 µM
KRAS G12V
  IC50: < 0.5 µM

## CC[C@H]1N(C(=O)n2cc(C#N)nc2C)C[C@]12CCCCN(c1nc(OC[C@@]34CCCN3C[C@H](F)C4)nc3c(F)c(-c4ccc(F)c5sc(N)c(C#N)c45)c(Cl)cc13)C2 (atropisomer, axis not shown; (aS)) [Compound 117, 1-((1R,4R)-6-(7-((R)-2-amino-3-cyano-7-fluorobenzo[b]thiophen-4-yl)-6-chloro-8-fluoro-2-(((2R,7aS)-2-fluorotetrahydro-1H-pyrrolizin-7a(5H)-yl)methoxy)quinazolin-4-yl)-1-ethyl-2,6-diazaspiro[3.6]decane-2-carbonyl)-2-methyl-1H-imidazole-4-carbonitrile]
KRAS G12S
  IC50: < 0.5 µM
KRAS WT
  IC50: < 0.5 µM
KRAS G12D
  IC50: < 0.5 µM
MiaPaca2 cells
  IC50: ≤ 0.5 µM
KRAS G12V
  IC50: < 0.5 µM

## CCN(c1nc(OC[C@@]23CCCN2C[C@H](F)C3)nc2c(F)c(-c3ccc(F)c4sc(N)c(C#N)c34)c(C(F)(F)F)cc12)[C@@H]1CCN(C(=O)n2cnc(F)n2)[C@@H]1C (atropisomer, axis not shown; (aS)) [Compound 125, 2-amino-4-((S)-4-(ethyl((2R,3R)-1-(3-fluoro-1H-1,2,4-triazole-1-carbonyl)-2-methylpyrrolidin-3-yl)amino)-8-fluoro-2-(((2R,7aS)-2-fluorotetrahydro-1H-pyrrolizin-7a(5H)-yl)methoxy)-6-(trifluoromethyl)quinazolin-7-yl)-7-fluorobenzo[b]thiophene-3-carbonitrile]
KRAS G12S
  IC50: < 0.5 µM
KRAS WT
  IC50: < 0.5 µM
KRAS G12D
  IC50: < 0.5 µM
MiaPaca2 cells
  IC50: ≤ 0.5 µM
KRAS G12V
  IC50: < 0.5 µM

## CCN(c1nc(OC[C@@]23CCCN2C[C@H](F)C3)nc2c(F)c(-c3ccc(F)c4sc(N)c(C#N)c34)c(C(F)(F)F)cc12)[C@@H]1CCN(C(=O)n2ccc(Cl)n2)[C@@H]1C (atropisomer, axis not shown; (aS)) [Compound 193, (S)-2-amino-4-(4-(((2R,3R)-1-(3-chloro-1H-pyrazole-1-carbonyl)-2-methylpyrrolidin-3-yl)(ethyl)amino)-8-fluoro-2-(((2R,7aS)-2-fluorotetrahydro-1H-pyrrolizin-7a(5H)-yl)methoxy)-6-(trifluoromethyl)quinazolin-7-yl)-7-fluorobenzo[b]thiophene-3-carbonitrile]
KRAS G12S
  IC50: < 0.5 µM
KRAS WT
  IC50: < 0.5 µM
KRAS G12D
  IC50: < 0.5 µM
MiaPaca2 cells
  IC50: ≤ 0.5 µM
KRAS G12V
  IC50: < 0.5 µM

## CC1CC(N(C)c2nc(OC[C@@]34CCCN3C[C@H](F)C4)nc3c(F)c(-c4ccc(F)c5sc(N)c(C#N)c45)c(Cl)cc23)CN1C(=O)n1cnc(F)n1 (mixture of isomers) [Compound 150, 2-amino-4-(6-chloro-8-fluoro-4-((1-(3-fluoro-1H-1,2,4-triazole-1-carbonyl)-5-methylpyrrolidin-3-yl)(methyl)amino)-2-(((2R,7aS)-2-fluorotetrahydro-1H-pyrrolizin-7a(5H)-yl)methoxy)quinazolin-7-yl)-7-fluorobenzo[b]thiophene-3-carbonitrile]
MiaPaca2 cells
  IC50: ≤ 0.5 µM

## CN(c1nc(OC[C@@]23CCCN2C[C@H](F)C3)nc2c(F)c(-c3ccc(F)c4sc(N)c(C#N)c34)c(Cl)cc12)C1CN(C(=O)n2ccnc2)CC1F (single isomer, unassigned) [Compound 189]
MiaPaca2 cells
  IC50: ≤ 0.5 µM

## CCN(c1nc(OCC23CCCN2C(COc2cc(C(F)(F)F)ncn2)CC3)nc2c(F)c(-c3ccc(F)c4sc(N)c(C#N)c34)c(Cl)cc12)[C@@H]1CCN(C(=O)n2cc(C)nc2C)[C@@H]1C (single isomer, unassigned) [Compound 217]
MiaPaca2 cells
  IC50: ≤ 0.5 µM

## CC1CC(N(C)c2nc(OC[C@@]34CCCN3C[C@H](F)C4)nc3c(F)c(-c4ccc(F)c5sc(N)c(C#N)c45)c(Cl)cc23)CCN1C(=O)n1ccnc1 (stereo partly drawn) [Compound 209, 4-(4-((1-(1H-imidazole-1-carbonyl)-2-methylpiperidin-4-yl)(methyl)amino)-6-chloro-8-fluoro-2-(((2R,7aS)-2-fluorotetrahydro-1H-pyrrolizin-7a(5H)-yl)methoxy)quinazolin-7-yl)-2-amino-7-fluorobenzo[b]thiophene-3-carbonitrile]
KRAS G12D
  IC50: < 0.5 µM
MiaPaca2 cells
  IC50: ≤ 0.5 µM
